Patent publication US20240018123A1, “COMPOUND FOR INHIBITING OR DISINTEGRATING ANDROGEN RECEPTOR, AND PHARMACEUTICAL USE THEREOF” (KOREA RESEARCH INSTITUTE OF CHEMICAL TECHNOLOGY, priority 2020, published 2024)
Where two headings read alike, the source gives them in different places.

Experiments:
[1] = molecular target: T1, Androgen receptor (AR) (Homo sapiens, UniProt P10275, T878A); experiment: Assessment of AR proteolytic activity (Western blotting of LNCap cell lysates); assay type: cell-based; conditions: 24 hours of treatment, Western blotting quantified with Image J
T1 construct: 5.5×10^5 LNCap cells were injected into each well of a 6-well plate; endogenous in cells; host or cells: LNCaP
T1 sequence (P10275 1-920 T878A): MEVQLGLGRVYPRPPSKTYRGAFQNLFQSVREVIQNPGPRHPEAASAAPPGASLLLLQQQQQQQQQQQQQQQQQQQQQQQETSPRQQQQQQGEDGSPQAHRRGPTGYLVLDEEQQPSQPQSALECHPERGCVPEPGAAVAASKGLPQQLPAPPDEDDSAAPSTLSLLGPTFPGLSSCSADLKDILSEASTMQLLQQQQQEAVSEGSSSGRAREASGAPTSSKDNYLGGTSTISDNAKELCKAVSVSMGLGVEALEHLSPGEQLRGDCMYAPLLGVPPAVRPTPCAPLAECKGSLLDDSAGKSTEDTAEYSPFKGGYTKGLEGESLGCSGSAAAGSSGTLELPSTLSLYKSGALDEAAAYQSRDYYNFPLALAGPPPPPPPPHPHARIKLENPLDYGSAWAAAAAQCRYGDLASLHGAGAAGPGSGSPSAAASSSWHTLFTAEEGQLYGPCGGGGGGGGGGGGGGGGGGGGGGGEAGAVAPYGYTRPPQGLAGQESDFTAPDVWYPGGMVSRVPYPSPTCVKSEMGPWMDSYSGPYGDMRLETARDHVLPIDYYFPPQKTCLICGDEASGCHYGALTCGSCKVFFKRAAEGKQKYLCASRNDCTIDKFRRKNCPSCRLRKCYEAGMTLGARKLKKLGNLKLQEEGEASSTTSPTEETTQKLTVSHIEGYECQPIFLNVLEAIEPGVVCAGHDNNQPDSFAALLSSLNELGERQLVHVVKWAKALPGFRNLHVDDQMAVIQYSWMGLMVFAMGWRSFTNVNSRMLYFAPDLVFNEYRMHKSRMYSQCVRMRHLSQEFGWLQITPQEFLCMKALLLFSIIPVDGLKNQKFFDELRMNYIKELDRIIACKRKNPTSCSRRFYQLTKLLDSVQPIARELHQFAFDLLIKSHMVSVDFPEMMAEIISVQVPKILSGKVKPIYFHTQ
Procedure, shortened: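 AR degradation read by Western blot densitometry on RIPA lysates (pH 7.5, protease inhibitor cocktail). Lysates came from LNCap cells, 5.5×10^5 per well, exposed to compound for 24 hours.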

[2] = system: 22RV1 cells; experiment: Cytotoxicity assessment (Cell-titer-glo cell viability), 22RV1; assay type: cell-based
Method: In order to evaluate the androgen receptor (AR) cytotoxicity of the compounds according to the present invention, the following experiment was conducted. Specifically, 1.5×10^3 (LNCaP) or 4×10^3 (VCaP, 22RV1), respectively, of LNCaP, VCaP, and 22RV1 cells were injected into each well of a 96-well plate. The next day, each well was treated with the compound at a final concentration of 3 nM, 10 nM, 30 nM, 100 nM, 300 nM, 1 μM, 3 μM, and 10 μM. […] After 6 days of treatment, Cell-titer-glo (promega) was treated and reacted for 10 minutes, and cell viability was measured with a multimode plate reader (PerkinElmer, Inc.), and the change was quantified compared to when DMSO was treated.

[3] = system: LNCaP cells
[4] = system: LNCaP cells; experiment: Cytotoxicity assessment (Cell-titer-glo cell viability), LNCaP; conditions: read-out: LNCAP (CC50); LNCaP cells, 6 days of treatment, Cell-titer-glo, vs DMSO
[5] = system: VCaP cells

CC1(C)[C@H](NC(=O)c2ccc(OCCOCCOCCOCCOCCOCCCNc3cccc4nnn(C5CCC(=O)NC5=O)c(=O)c34)cc2)C(C)(C)[C@H]1Oc1ccc(C#N)c(Cl)c1 (single isomer, unassigned) [Example 3, N-((1r,3r)-3-(3-chloro-4-cyanophenoxy)-2,2,4,4-tetramethylcyclobutyl)-4-((18-((3-(2,6-dioxopiperidin-3-yl)-4-oxo-3,4-dihydrobenzo[d][1,2,3]triazin-5-yl)amino)-3,6,9,12,15-pentaoxaoctadecyl)oxy)benzamide] was tested, and the “Degradation (1 μM treated in LNCaP, % AR remaining)” value [1] was 47%, the CC50 [2] was 430 nM and the CC50 [3] was 2980 nM.

In the case of CC1(C)C(NC(=O)c2ccc(OCCOCCOCCOCCOCCOCCOCCCCNc3cccc4nnn(C5CCC(=O)NC5=O)c(=O)c34)cc2)C(C)(C)C1Oc1ccc(C#N)c(Cl)c1 (stereo not drawn) [Example 6, N-((1r,3r)-3-(3-chloro-4-cyanophenoxy)-2,2,4,4-tetramethylcyclobutyl)-4-((22-((3-(2,6-dioxopiperidin-3-yl)-4-oxo-3,4-dihydrobenzo[d][1,2,3]triazin-5-yl)amino)-3,6,9,12,15,18-hexaoxadocosyl)oxy)benzamide], the “Degradation (1 μM treated in LNCaP, % AR remaining)” value [1] is reported as 66%, the CC50 ([2]; 22RV1 cells, 6 days of treatment, Cell-titer-glo, vs DMSO, read-out: 22RV1 (CC50)) is reported as 7100 nM and the CC50 [4] is reported as 5930 nM.

CC1(C)[C@H](NC(=O)c2ccc(N3CCN(CC4(F)CCN(C(=O)C5CN(c6ccc7nnn(C8CCC(=O)NC8=O)c(=O)c7c6)C5)CC4)CC3)cc2)C(C)(C)[C@H]1Oc1ccc(C#N)c(Cl)c1 (stereo partly drawn) [Example 63, N-((1r,3r)-3-(3-chloro-4-cyanophenoxy)-2,2,4,4-tetramethylcyclobutyl)-4-(4-((1-(1-(3-(2,6-dioxopiperidin-3-yl)-4-oxo-3,4-dihydrobenzo[d][1,2,3]triazin-6-yl)azetidine-3-carbonyl)-4-fluoropiperidin-4-yl)methyl)piperazin-1-yl)benzamide] was tested, and the “Degradation (1 μM treated in LNCaP, % AR remaining)” value [1] was 6%, the CC50 [3] was 53.2 nM and the CC50 [5] was 14.8 nM.

With CC1(C)[C@H](NC(=O)c2ccc(C#CC3CCN(C(=O)COc4ccc5nnn(C6CCC(=O)NC6=O)c(=O)c5c4)CC3)cc2)C(C)(C)[C@H]1Oc1ccc(C#N)c(Cl)c1 (stereo partly drawn) [Example 144, N-((1r,3r)-3-(3-chloro-4-cyanophenoxy)-2,2,4,4-tetramethylcyclobutyl)-4-((1-(2-((3-(2,6-dioxopiperidin-3-yl)-4-oxo-3,4-dihydrobenzo[d][1,2,3]triazin-6-yl)oxy)acetyl)piperidin-4-yl)ethynyl)benzamide] the “Degradation (1 μM treated in LNCaP, % AR remaining)” value [1] was 14.7%, the CC50 [3] was 144 nM and the CC50 [5] was 21 nM.

CC1(C)[C@H](NC(=O)c2ccc(N3CCN(CCC4CCN(C(=O)CNc5ccc6nnn(C7CCC(=O)NC7=O)c(=O)c6c5)CC4)CC3)cc2)C(C)(C)[C@H]1Oc1ccc(C#N)c(Cl)c1 (stereo partly drawn) [Example 25, N-((1r,3r)-3-(3-chloro-4-cyanophenoxy)-2,2,4,4-tetramethylcyclobutyl)-4-(4-(2-(1-((3-(2,6-dioxopiperidin-3-yl)-4-oxo-3,4-dihydrobenzo[d][1,2,3]triazin-6-yl)glycyl)piperidin-4-yl)ethyl)piperazin-1-yl)benzamide] was tested, and the “Degradation (1 μM treated in LNCaP, % AR remaining)” value [1] was 50%, the CC50 [3] was 2130 nM and the CC50 [5] was 45.7 nM.

CC1(C)[C@H](NC(=O)c2ccc(N3CCN(CCC4CCN(C(=O)COc5ccc6nnn(C7CCC(=O)NC7=O)c(=O)c6c5)CC4)CC3)cc2)C(C)(C)[C@H]1Oc1ccc(C#N)c(Cl)c1 (stereo partly drawn) [Example 24, N-((1r,3r)-3-(3-chloro-4-cyanophenoxy)-2,2,4,4-tetramethylcyclobutyl)-4-(4-(2-(1-(2-((3-(2,6-dioxopiperidin-3-yl)-4-oxo-3,4-dihydrobenzo[d][1,2,3]triazin-6-yl)oxy)acetyl)piperidin-4-yl)ethyl)piperazin-1-yl)benzamide] was tested, and the “Degradation (1 μM treated in LNCaP, % AR remaining)” value [1] was 13%, the CC50 [3] was 1480 nM and the CC50 [5] was 107 nM.

For CC1(C)[C@H](NC(=O)c2ccc(OCCOCCOCCOCCOCCOCCCNc3cccc4nnn(C5CCC(=O)NC5=O)c(=O)c34)cc2)C(C)(C)[C@H]1Oc1ccc(C#N)c(Cl)c1 (single isomer, unassigned) [Example 4, N-((1r,3r)-3-(3-chloro-4-cyanophenoxy)-2,2,4,4-tetramethylcyclobutyl)-4-((18-((3-(2,6-dioxopiperidin-3-yl)-4-oxo-3,4-dihydrobenzo[d][1,2,3]triazin-5-yl)amino)-3,6,9,12,15-pentaoxaoctadecyl)oxy)benzamide], the “Degradation (1 μM treated in LNCaP, % AR remaining)” value [1] was 58%, the CC50 [2] was 4460 nM and the CC50 [3] was 5320 nM.

In the case of CC1(C)[C@H](NC(=O)c2ccc(-c3cnn(C4CCN(CC5CCN(C(=O)C6CN(c7ccc8nnn(C9CCC(=O)NC9=O)c(=O)c8c7)C6)CC5)CC4)c3)cc2)C(C)(C)[C@H]1Oc1ccc(C#N)c(Cl)c1 (stereo partly drawn) [Example 83, N-((1r,3r)-3-(3-chloro-4-cyanophenoxy)-2,2,4,4-tetramethylcyclobutyl)-4-(1-(1-((1-(1-(3-(2,6-dioxopiperidin-3-yl)-4-oxo-3,4-dihydrobenzo[d][1,2,3]triazin-6-yl)azetidine-3-carbonyl)piperidin-4-yl)methyl)piperidin-4-yl)-1H-pyrazol-4-yl)benzamide], the “Degradation (1 μM treated in LNCaP, % AR remaining)” value [1] is reported as 43%, the CC50 [3] is reported as 13.7 nM and the CC50 [5] is reported as 6 nM.

With CC1(C)[C@H](NC(=O)c2ccc(N3CCN(CCC4CCN(c5cccc6nnn(C7CCC(=O)NC7=O)c(=O)c56)CC4)CC3)cc2)C(C)(C)[C@H]1Oc1ccc(C#N)c(Cl)c1 (stereo partly drawn) [Example 28, N-((1r,3r)-3-(3-chloro-4-cyanophenoxy)-2,2,4,4-tetramethylcyclobutyl)-4-(4-(2-(1-(3-(2,6-dioxopiperidin-3-yl)-4-oxo-3,4-dihydrobenzo[d][1,2,3]triazin-5-yl)piperidin-4-yl)ethyl)piperazin-1-yl)benzamide] the “Degradation (1 μM treated in LNCaP, % AR remaining)” value [1] was 69%, the CC50 [3] was 1280 nM and the CC50 [5] was 1580 nM.

In the case of CC1(C)[C@H](NC(=O)c2ccc(N3CCN(CCC4CCN(c5ccc6nnn(C7CCC(=O)NC7=O)c(=O)c6c5)CC4)CC3)cc2)C(C)(C)[C@H]1Oc1ccc(C#N)c(Cl)c1 (stereo partly drawn) [Example 29, N-((1r,3r)-3-(3-chloro-4-cyanophenoxy)-2,2,4,4-tetramethylcyclobutyl)-4-(4-(2-(1-(3-(2,6-dioxopiperidin-3-yl)-4-oxo-3,4-dihydrobenzo[d][1,2,3]triazin-6-yl)piperidin-4-yl)ethyl)piperazin-1-yl)benzamide], the “Degradation (1 μM treated in LNCaP, % AR remaining)” value [1] is reported as 6%, the CC50 [3] is reported as 425 nM and the CC50 [5] is reported as 120 nM.

With CC1(C)[C@H](NC(=O)c2ccc(N3CCN(CCC4CCN(C(=O)C5CN(c6ccc7nnn(C8CCC(=O)NC8=O)c(=O)c7c6)C5)CC4)CC3)cc2)C(C)(C)[C@H]1Oc1ccc(C#N)c(Cl)c1 (stereo partly drawn) [Example 27, N-((1r,3r)-3-(3-chloro-4-cyanophenoxy)-2,2,4,4-tetramethylcyclobutyl)-4-(4-(2-(1-(1-(3-(2,6-dioxopiperidin-3-yl)-4-oxo-3,4-dihydrobenzo[d][1,2,3]triazin-6-yl)azetidine-3-carbonyl)piperidin-4-yl)ethyl)piperazin-1-yl)benzamide] the “Degradation (1 μM treated in LNCaP, % AR remaining)” value [1] was 14%, the CC50 [3] was 552 nM and the CC50 [5] was 37.1 nM.

CC1(C)[C@H](NC(=O)c2ccc(C#CC3CCN(CC4CCN(c5ccc6nnn(C7CCC(=O)NC7=O)c(=O)c6c5)CC4)CC3)cc2)C(C)(C)[C@H]1Oc1ccc(C#N)c(Cl)c1 (stereo partly drawn) [Example 99, N-((1r,3r)-3-(3-chloro-4-cyanophenoxy)-2,2,4,4-tetramethylcyclobutyl)-4-((1-((1-(3-(2,6-dioxopiperidin-3-yl)-4-oxo-3,4-dihydrobenzo[d][1,2,3]triazin-6-yl)piperidin-4-yl)methyl)piperidin-4-yl)ethynyl)benzamide] was tested, and the “Degradation (1 μM treated in LNCaP, % AR remaining)” value [1] was 20%, the CC50 [3] was 31.5 nM and the CC50 [5] was 2 nM.
